Reference: ChEMBL document CHEMBL1143211, “Inhibitors of proteases and amide hydrolases that employ an alpha-ketoheterocycle as a key enabling functionality” (Bioorg Med Chem, 2008)
Where a SMILES comes first, the peptide text is derived from it. [ ]: non-standard residue; d: D form. The star is where a group is joined. Nle = CCCC[C@H](N)C(=O)O; Bz = O=C(c1ccccc1)*

Assays:
[1] = Inhibition of human beta-tryptase
Homo sapiens [2] = organism: Homo sapiens; test: Selectivity for human alpha-thrombin over human trypsin
Granzyme B = Granzyme B (Homo sapiens, UniProt P10144); test: Inhibition of granzyme B
[3] = Inhibition of dengue virus NS3 protease
[4] = Inhibition of calpain 1 at 10 uM
[5] = Selectivity for human alpha-thrombin over factor 10a
[6] = Selectivity for human alpha-thrombin over tissue plasminogen activator
[7] = Selectivity for human alpha-thrombin over plasmin
[8] = Selectivity for human beta-tryptase over kallikrein
[9] = Selectivity for human alpha-thrombin over uPA
Hamster = test: Efficacy in po dosed hamster acute lung injury model; assay type: functional; settings: Cricetinae
Plasma kallikrein = Plasma kallikrein (Homo sapiens, UniProt P03952); test: Inhibition of kallikrein
Coagulation factor X = Coagulation factor X (Homo sapiens, UniProt P00742); test: Inhibition of human factor 10a
[10] = Inhibition of human rhinovirus 14 3C protease; parameters: species or system rhinovirus B14
rhinovirus B14 = test: Antiviral activity against human rhinovirus 14; assay type: functional, organism-based; settings: Rhinovirus B
[11] = Inhibition of post-glutamyl peptide hydrolase-like activity of human 20S proteasome
[12] = Inhibition of trypsin-like activity of human 20S proteasome
[13] = Selectivity for rat FAAH over triacylglycerol hydrolase
[14] = biological target: T1, Fatty-acid amide hydrolase 1 (Homo sapiens, UniProt O00519); test: Inhibition of human recombinant FAAH
T1 sequence (O00519 whole entry): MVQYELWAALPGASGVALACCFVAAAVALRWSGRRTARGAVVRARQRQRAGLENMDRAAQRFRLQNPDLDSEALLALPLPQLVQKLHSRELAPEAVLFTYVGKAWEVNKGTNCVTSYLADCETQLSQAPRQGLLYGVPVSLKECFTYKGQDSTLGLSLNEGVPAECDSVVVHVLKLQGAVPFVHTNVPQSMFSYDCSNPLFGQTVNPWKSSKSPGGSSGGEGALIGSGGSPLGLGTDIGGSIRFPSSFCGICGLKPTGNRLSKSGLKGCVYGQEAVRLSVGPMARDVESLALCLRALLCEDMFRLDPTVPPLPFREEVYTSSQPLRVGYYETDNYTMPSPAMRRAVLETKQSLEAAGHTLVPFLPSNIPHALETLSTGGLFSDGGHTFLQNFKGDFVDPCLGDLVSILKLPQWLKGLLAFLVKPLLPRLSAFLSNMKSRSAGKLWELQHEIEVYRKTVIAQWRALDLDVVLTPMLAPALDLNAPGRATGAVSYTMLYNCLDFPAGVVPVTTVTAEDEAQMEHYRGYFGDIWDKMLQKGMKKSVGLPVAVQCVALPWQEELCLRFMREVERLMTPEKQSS

[15] = Selectivity for human alpha-thrombin over bovine trypsin
[16] = Inhibition of bovine trypsin; parameters: species or system Bos taurus
Homo sapiens [17] = organism: Homo sapiens; test: Selectivity for human beta-tryptase over human alpha thrombin
Prothrombin = Prothrombin (Homo sapiens, UniProt P00734); test: Inhibition of human alpha-thrombin
Trypsin = Trypsin (Homo sapiens, UniProt P07477+P07478+P35030); test: Inhibition of human trypsin; assay type: protein assay
[18] = biological target: T2, Fatty-acid amide hydrolase 1 (Rattus norvegicus, UniProt P97612)
T2 sequence (P97612 whole entry): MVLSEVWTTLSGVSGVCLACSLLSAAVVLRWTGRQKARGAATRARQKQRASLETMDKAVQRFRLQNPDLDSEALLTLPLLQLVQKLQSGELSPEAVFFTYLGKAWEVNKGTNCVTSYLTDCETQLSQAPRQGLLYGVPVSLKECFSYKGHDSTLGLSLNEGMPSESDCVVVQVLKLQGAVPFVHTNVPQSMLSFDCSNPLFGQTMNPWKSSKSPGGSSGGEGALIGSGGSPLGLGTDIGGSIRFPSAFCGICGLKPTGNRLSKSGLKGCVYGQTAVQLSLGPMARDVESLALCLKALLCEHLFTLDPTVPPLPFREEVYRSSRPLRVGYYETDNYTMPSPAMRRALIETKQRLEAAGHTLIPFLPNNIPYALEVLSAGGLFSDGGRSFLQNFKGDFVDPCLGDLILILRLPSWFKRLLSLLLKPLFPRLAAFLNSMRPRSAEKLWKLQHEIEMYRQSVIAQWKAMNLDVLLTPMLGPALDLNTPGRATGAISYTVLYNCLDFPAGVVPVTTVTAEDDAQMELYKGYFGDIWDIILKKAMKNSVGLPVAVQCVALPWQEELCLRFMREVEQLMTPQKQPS

[19] = biological target: T3, Trifunctional purine biosynthetic protein adenosine-3 (Homo sapiens, UniProt P22102); test: Inhibition of human glycinamide ribonucleotide transformylase
T3 sequence (P22102 whole entry): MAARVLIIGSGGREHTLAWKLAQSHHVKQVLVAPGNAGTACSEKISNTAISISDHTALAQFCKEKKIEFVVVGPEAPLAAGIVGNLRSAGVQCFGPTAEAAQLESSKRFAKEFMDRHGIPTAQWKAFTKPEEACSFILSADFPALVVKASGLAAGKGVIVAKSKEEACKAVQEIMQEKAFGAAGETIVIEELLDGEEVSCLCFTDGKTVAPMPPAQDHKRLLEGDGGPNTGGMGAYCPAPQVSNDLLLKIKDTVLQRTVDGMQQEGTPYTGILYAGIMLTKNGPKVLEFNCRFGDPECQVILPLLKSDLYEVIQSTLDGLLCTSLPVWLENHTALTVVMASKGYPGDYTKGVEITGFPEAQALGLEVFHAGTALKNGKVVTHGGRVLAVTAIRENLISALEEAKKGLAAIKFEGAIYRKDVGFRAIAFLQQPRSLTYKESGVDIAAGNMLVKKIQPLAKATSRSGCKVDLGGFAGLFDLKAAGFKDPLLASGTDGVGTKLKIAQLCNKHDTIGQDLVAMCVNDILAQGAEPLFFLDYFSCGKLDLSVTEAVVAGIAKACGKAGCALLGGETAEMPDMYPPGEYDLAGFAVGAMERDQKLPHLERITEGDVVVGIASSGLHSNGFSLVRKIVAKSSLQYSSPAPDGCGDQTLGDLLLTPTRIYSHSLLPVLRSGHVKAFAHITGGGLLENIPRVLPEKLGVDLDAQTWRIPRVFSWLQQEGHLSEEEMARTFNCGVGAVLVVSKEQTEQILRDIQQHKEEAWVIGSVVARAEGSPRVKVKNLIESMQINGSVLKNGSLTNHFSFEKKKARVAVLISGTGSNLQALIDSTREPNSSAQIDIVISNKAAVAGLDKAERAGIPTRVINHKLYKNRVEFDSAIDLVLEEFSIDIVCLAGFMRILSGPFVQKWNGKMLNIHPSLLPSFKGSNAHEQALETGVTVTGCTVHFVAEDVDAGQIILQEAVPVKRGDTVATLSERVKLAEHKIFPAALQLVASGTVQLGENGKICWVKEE

Chain of Granzyme B (P10144 whole entry): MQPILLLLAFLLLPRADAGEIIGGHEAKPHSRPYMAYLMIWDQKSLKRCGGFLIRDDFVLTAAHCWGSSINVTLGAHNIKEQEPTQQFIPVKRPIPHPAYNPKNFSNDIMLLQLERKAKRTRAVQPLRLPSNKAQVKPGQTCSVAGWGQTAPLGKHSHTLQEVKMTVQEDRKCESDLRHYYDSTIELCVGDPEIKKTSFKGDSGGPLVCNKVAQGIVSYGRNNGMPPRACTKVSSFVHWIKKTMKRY
Chain of Coagulation factor X (P00742 41-179 limits assumed): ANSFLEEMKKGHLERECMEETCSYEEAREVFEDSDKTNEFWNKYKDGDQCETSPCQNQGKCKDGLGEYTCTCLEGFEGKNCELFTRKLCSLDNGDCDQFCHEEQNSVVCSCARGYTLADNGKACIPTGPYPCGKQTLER
Chain of Coagulation factor X (P00742 235-488 limits assumed): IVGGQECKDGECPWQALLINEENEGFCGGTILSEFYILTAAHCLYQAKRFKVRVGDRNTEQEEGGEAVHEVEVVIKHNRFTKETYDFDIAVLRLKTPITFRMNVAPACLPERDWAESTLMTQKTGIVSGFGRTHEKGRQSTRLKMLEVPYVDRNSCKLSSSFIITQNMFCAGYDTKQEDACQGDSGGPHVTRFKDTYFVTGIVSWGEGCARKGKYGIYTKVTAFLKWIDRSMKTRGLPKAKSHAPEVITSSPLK
Chain of Plasma kallikrein (P03952 20-390 limits assumed): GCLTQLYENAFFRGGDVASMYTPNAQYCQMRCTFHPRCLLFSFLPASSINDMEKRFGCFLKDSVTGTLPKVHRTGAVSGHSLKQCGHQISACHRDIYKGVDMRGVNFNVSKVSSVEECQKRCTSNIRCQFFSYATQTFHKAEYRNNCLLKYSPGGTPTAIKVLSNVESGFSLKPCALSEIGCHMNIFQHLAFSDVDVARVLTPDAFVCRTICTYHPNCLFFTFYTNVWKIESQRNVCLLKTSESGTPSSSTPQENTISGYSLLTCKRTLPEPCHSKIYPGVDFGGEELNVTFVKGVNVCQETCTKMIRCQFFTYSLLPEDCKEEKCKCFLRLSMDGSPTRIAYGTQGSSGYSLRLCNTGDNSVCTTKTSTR
Chain of Plasma kallikrein (P03952 391-638 limits assumed): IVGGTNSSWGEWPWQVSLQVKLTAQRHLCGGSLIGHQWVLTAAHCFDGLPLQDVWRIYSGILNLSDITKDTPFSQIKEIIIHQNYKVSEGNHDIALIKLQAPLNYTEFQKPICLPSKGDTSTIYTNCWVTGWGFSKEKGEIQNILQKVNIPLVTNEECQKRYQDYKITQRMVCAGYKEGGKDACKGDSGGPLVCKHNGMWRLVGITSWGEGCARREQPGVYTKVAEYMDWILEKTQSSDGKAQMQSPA

NCCCC[C@H](NC(=O)c1cc(F)cc(F)c1)C(=O)c1noc(Cc2ccc(C(=O)NCCc3cccc(Cl)c3)cc2)n1
Ki [1]: 1.5 nM | Selectivity ratio (Homo sapiens [2]): 275

CC[C@H](C)[C@H](NC(C)=O)C(=O)N[C@H]1CCc2cccc3c2N(C1=O)[C@H](C(=O)N[C@@H](CC(=O)O)C(=O)c1nc2ccccc2s1)C3
Ki (Granzyme B): 85 nM

CCCC[C@H](NC(=O)c1ccccc1)C(=O)N[C@@H](CCCCN)C(=O)N[C@@H](CCCNC(=N)N)C(=O)N[C@H](CCCNC(=N)N)B(O)O
Ki [3]: 0.043 µM

CC(C)C[C@H](NC(=O)OCc1ccccc1)C(=O)N[C@@H](CC(C)C)C(=O)N[C@@H](Cc1ccccc1)C(=O)c1nccs1
inhibition [4]: 54%

CC(=O)N1C[C@H](O)C[C@H]1C(=O)N[C@@H](CCCN=C(N)N)C(=O)c1nc2ccccc2s1
Selectivity ratio [5]: > 500 | Selectivity ratio [6]: > 500 | Selectivity ratio [7]: > 500 | Selectivity ratio [8]: 30 | Selectivity ratio [9]: 200 | Ki [1]: 10 nM

CC(C)[C@H](NC(=O)Cn1c(-c2ccc(F)cc2)ncc(N)c1=O)C(=O)c1nnc(C(C)(C)c2ccccc2)o1
ED50 (Hamster): 10 mg/kg

N=C(N)NCCC[C@H](NC(=O)CNC(=O)[C@@H](CCCNC(=N)N)NS(=O)(=O)CCc1ccccc1)C(=O)c1nccs1
IC50 (Plasma kallikrein): 120 nM | IC50 (Coagulation factor X): 1 nM

CC(C)C[C@H](NC(=O)OCc1ccccc1)C(=O)N[C@@H](Cc1ccccc1)C(=O)N[C@@H](C[C@H]1CCNC1=O)C(=O)c1ccccn1
Ki [10]: 170 nM | EC50 (rhinovirus B14): 4 µM

CCCC[C@H](NC(=O)c1ccccc1)C(=O)N[C@@H](CCCCN)C(=O)N[C@@H](CCCNC(=N)N)C(=O)N[C@@H](CCCNC(=N)N)C(=O)c1nc2ccccc2o1
Ki [3]: 83 µM

CC(C)C[C@H](NC(=O)OC(C)(C)C)C(=O)N[C@@H](CC(C)C)C(=O)c1ncc[nH]1
inhibition [4]: 77%

Cc1ccc(S(=O)(=O)N[C@@H](CC(=O)NCC(C)(C)C)C(=O)N[C@@H](C)C(=O)N[C@@H](CC(C)C)C(=O)c2nnc(-c3ccc(N(C)C)cc3)o2)cc1
Ki [11]: > 300 µM | Ki [12]: 290 µM

Cc1cc(C(=O)N[C@H](C(=O)N[C@@H](Cc2ccc(F)cc2)C(=O)N[C@@H](C[C@@H]2CCNC2=O)C(=O)c2nc3ccccc3s2)C(C)C)no1
Ki [10]: 4.5 nM | EC50 (rhinovirus B14): 0.34 µM

COC(=O)N[C@H](C(=O)N1CCC[C@H]1C(=O)N[C@H](C(=O)c1nn(-c2ccc(N(C)C)cc2)c(=O)o1)C(C)C)C(C)C
ED50 (Hamster): 7.5 mg/kg

CC[C@H](C)[C@H](NC(C)=O)C(=O)N[C@H]1CCc2cccc3c2N(C1=O)[C@H](C(=O)N[C@H](C=O)CC(=O)O)C3
Ki (Granzyme B): 8 nM

Cc1cccc(Cc2nnc(C(=O)[C@@H](NC(=O)Cn3c(-c4ccc(F)cc4)ncc(N)c3=O)C(C)C)o2)c1
ED50 (Hamster): 13 mg/kg

CCCC[C@H](NC(=O)c1ccccc1)C(=O)N[C@@H](CCCCN)C(=O)N[C@@H](CCCNC(=N)N)C(=O)N[C@@H](CCCNC(=N)N)C(=O)c1nccs1
Ki [3]: 43 µM

CCCCCCCC/C=C\CCCCCCCC(=O)c1nc2ncccc2o1
Selectivity ratio [13]: 30 | Ki [14]: 13 nM

CC(C)C[C@H](NC(=O)OCc1ccccc1)C(=O)N[C@@H](Cc1ccccc1)C(=O)N[C@@H](C[C@H]1CCNC1=O)C(=O)c1cc2ccccc2s1
Ki [10]: 4700 nM | EC50 (rhinovirus B14): > 10 µM

CN[C@H](Cc1ccccc1)C(=O)N1CCC[C@H]1C(=O)N[C@@H](CCCN=C(N)N)C(=O)c1nc2c(s1)CCCC2
Ratio Ki [15]: 15 | Ki [16]: 4.4 nM

CCCC[C@H](NC(=O)c1ccccc1)C(=O)N[C@@H](CCCCN)C(=O)N[C@@H](CCCNC(=N)N)C(=O)N[C@H](C=O)CCCNC(=N)N (Bz-[Nle]KRR-aldehyde)
Ki [3]: 5.8 µM

CCOC(=O)N[C@@H](CCCCN)C(=O)c1noc(Cc2ccc(C(=O)NC3Cc4ccccc4C3)cc2)n1
Selectivity ratio [5]: > 1000 | Selectivity ratio (Homo sapiens [17]): > 1000 | Ki [1]: 3 nM | Selectivity ratio (Homo sapiens [2]): > 50

C=CCOC(=O)N[C@@H](CC1CCNC1)C(=O)c1noc(Cc2ccc(C(=O)NC3Cc4ccccc4C3)cc2)n1 (some centres not stated)
Ki [1]: 25 nM | Selectivity ratio (Homo sapiens [2]): > 50

N=C(N)N1CCC[C@@H](C[C@H](NC(=O)CN2C(=O)CN(CCCc3ccccc3)C(=O)[C@H]2Cc2ccccc2Cl)C(=O)c2nccs2)C1
Ki (Prothrombin): 1.2 nM | IC50 (Trypsin): 9.7 µM | Ratio Ki (Homo sapiens [2]): 500

CC(C)C[C@H](NC(=O)OCc1ccccc1)C(=O)N[C@@H](Cc1ccccc1)C(=O)N[C@@H](C[C@H]1CCNC1=O)C(=O)c1nccs1
Ki [10]: 700 nM | EC50 (rhinovirus B14): 7.9 µM

CC[C@H](C)[C@H](NC(C)=O)C(=O)N[C@H]1CCc2cccc3c2N(C1=O)[C@H](C(=O)N[C@@H](CC(=O)O)C(=O)c1nnc(-c2ccccc2)o1)C3
Ki (Granzyme B): 7 nM

Cc1ccc(S(=O)(=O)N[C@@H](CC(=O)NCC(C)(C)C)C(=O)N[C@](C)(CO)C(=O)N[C@@H](CC(C)C)C(=O)c2nnc(-c3ccccc3)o2)cc1
Ki [11]: > 900 µM | Ki [12]: > 900 µM

CN[C@H](Cc1ccccc1)C(=O)N1CCC[C@H]1C(=O)N[C@@H](CCCNC(=N)N)C(=O)c1cc2ccccc2s1
Ratio Ki [15]: 12000 | Ki [16]: 1300 nM

CCCCCCCC/C=C\CCCCCCCC(=O)c1nc2ccccc2o1
Ki [14]: 73 nM

CC(C)C[C@H](NC(=O)OCc1ccccc1)C(=O)N[C@@H](Cc1ccccc1)C(=O)N[C@@H](C[C@H]1CCNC1=O)C(=O)c1nc2ccccc2s1
Ki [10]: 65 nM | EC50 (rhinovirus B14): 3.2 µM

N#Cc1cnc(C(=O)CCc2ccc(-c3ccccc3)cc2)o1
Ki [18]: 0.2 nM | Ki [14]: 0.26 nM

Nc1nc(N)c(CCCC(C(=O)c2nc3ccccc3o2)c2ccc(C(=O)N[C@@H](CCC(=O)O)C(=O)O)cc2)c(=O)[nH]1 (some centres not stated)
Ki [19]: 600 nM

N=C(N)NCCC[C@H](NC(=O)CNC(=O)[C@@H](CCCNC(=N)N)NS(=O)(=O)CCc1ccccc1)C(=O)c1nc2ccccc2s1
IC50 (Plasma kallikrein): 29 nM | IC50 (Coagulation factor X): 2 nM

CN[C@H](Cc1ccccc1)C(=O)N1CCC[C@H]1C(=O)N[C@@H](CCCN=C(N)N)C(=O)c1nccs1
Ratio Ki [15]: 10 | Ki [16]: 1.2 nM

CN[C@H](Cc1ccccc1)C(=O)N1CCC[C@H]1C(=O)N[C@@H](CCCN=C(N)N)C(=O)c1nc2ccccc2o1
Ratio Ki [15]: 30 | Ki [16]: 13 nM

Nc1nc(N)c(CCCC(c2ccc(C(=O)N[C@@H](CCC(=O)O)C(=O)O)cc2)C(O)c2nc3ccccc3o2)c(=O)[nH]1 (some centres not stated)
Ki [19]: 1800 nM
